Read-outs that look alike come from different tables or passages of the source.
Columns and labels:
male Sprague-Dawley rats = assay: Reversal of amphetamine-induced hyperlocomotion in rats; type: in vivo, rat; conditions: oral gavage, doses as in FIG. 4; amphetamine sulfate 1 mg/kg sc; data only in FIG. 4
Method: Locomotor activity was assessed as mean distance traveled (cm) in standard 16×16 photocell testing chambers measuring 43.2 cm (Length)×43.2 cm (Width)×30.5 cm (Height) (Med Associates, St. Albans, Vt.). Animals were habituated to individual activity chambers for at least 30 min prior to drug administration. Following administration of drug or vehicle, activity was recorded for a 90 minute time period. Data was expressed as the mean (±SEM) distance traveled recorded in 5 min intervals over the test period. The data was analyzed using repeated measures analysis of variance (ANOVA) followed by post-hoc testing using Dunnett's test, when appropriate. A difference was considered significant when p≦0.05. […]
The animals were habituated in Smart Open Field locomotor activity test chambers (Hamilton-Kinder, San Diego, Calif.) with 16×16 photobeams to automatically record locomotor activity for 30 min and then dosed with vehicle or test compound. […] At 60 min, all rats were injected subcutaneously with 1 mg/kg amphetamine or vehicle and then monitored for an additional 60 min. Animals are monitored for a total of 120 minutes. Data are expressed as changes in ambulation defined as total number of beam breaks per 5 min periods.
The data for the dose-response studies were analyzed by a between-group analysis of variance. […]

human mGluR5a receptor = human mGluR5a receptor (Homo sapiens, UniProt P41594); assay: Cell-based functional Ca2+ mobilization assay (FDSS), potentiation of glutamate EC20 response in H10H cell line; conditions: for Emax: percent of maximal glutamate response, human mGluR5 HEK cells; for EC50 / pEC50: HEK cells transfected with human mGluR5 (H10H), presence of glutamate EC20; for EC50: read-out: EC50; for pEC50: concentration in mol/L
Method: Human embryonic kidney (HEK) cells transfected with rat mGluR5 were plated in clear bottom assay plates for assay in a Functional Drug Screening System (FDSS). In the alternative assay, HEK cells transfected with human mGluR5 (H10H cell line) were plated for assay in the FDSS. […] The cells were loaded with a Ca^2+-sensitive fluorescent dye (e.g., Fluo-4), and the plates were washed and placed in the FDSS instrument. After establishment of a fluorescence baseline for twelve seconds, the compounds of the present invention were added to the cells, and the response in cells was measured. Alternatively, in various further aspects, after establishment of a fluorescence baseline for about three seconds, the compounds of the present invention were added to the cells, and the response in cells was measured. Five minutes later, an mGluR5 agonist (e.g., glutamate, 3,5-dihydroxyphenylglycine, or quisqualate) was added to the cells, and the response of the cells was measured.
The above described assay operated in two modes. In the first mode, a range of concentrations of the present compounds were added to cells, followed by a single fixed concentration of agonist. If a compound acted as a potentiator, an EC50 value for potentiation and a maximum extent of potentiation by the compound at this concentration of agonist was determined by non-linear curve fitting. In the second mode, several fixed concentrations of the present compounds were added to various wells on a plate, followed by a range of concentrations of agonist for each concentration of present compound; the EC50 values for the agonist at each concentration of compound were determined by non-linear curve fitting. A decrease in the EC50 value of the agonist with increasing concentrations of the present compounds (a leftward shift of the agonist concentration-response curve) is an indication of the degree of mGluR5 potentiation at a given concentration of the present compound. An increase in the EC50 value of the agonist with increasing concentrations of the present compounds (a rightward shift of the agonist concentration-response curve) is an indication of the degree of mGluR5 antagonism at a given concentration of the present compound. The second mode also indicates whether the present compounds also affect the maximum response to mGluR5 to agonists.
The mGluR5 activity was determined using the metabotropic glutamate receptor activity assays in human embryonic kidney cells as described herein, wherein the human embryonic kidney cells were transfected with human mGluR5. The compounds in Table 1 were synthesized with methods identical or analogous to those shown herein. The requisite starting materials were commercially available, described in the literature, or readily synthesized by one skilled in the art of organic synthesis.
Human mGluR5a cDNA in pCMV6-XL6 mammalian expression plasmid was purchased from OriGene Technologies, Inc. (catalogue number SC326357) and subcloned into pcDNA3.1(−). Human embryonic kidney (HEK)293A cells were then transfected with human mGluR5a pcDNA3.1(−) using LipofectAmine2000 (Invitrogen) and monoclones were selected and tested for functional response using a Ca^2+ mobilization assay. Monoclones were named for the species (“H” for human) plus the location on the plate (e.g. “10H”).
HEK cells transfected with the human mGluR5a receptor (H10H cell line) were plated at 15,000 cells/well in clear-bottomed poly-D-lysine-coated assay plates (BD Falcon) in glutamate-glutamine-free growth medium and incubated overnight at 37° C. and 5% CO2. The following day, the growth medium was removed and the cells were washed with assay buffer containing 1× Hank's balanced salt solution (Invitrogen, Carlsbad, Calif.), 20 mM HEPES, 2.5 mM probenecid, pH 7.4 and left with 20 μL of this reagent.

[1] = HEK293, maximum average response at a single concentration, read-out: Emax

Sequence of human mGluR5a receptor (P41594 21-1180 isoform P41594-2 limits assumed): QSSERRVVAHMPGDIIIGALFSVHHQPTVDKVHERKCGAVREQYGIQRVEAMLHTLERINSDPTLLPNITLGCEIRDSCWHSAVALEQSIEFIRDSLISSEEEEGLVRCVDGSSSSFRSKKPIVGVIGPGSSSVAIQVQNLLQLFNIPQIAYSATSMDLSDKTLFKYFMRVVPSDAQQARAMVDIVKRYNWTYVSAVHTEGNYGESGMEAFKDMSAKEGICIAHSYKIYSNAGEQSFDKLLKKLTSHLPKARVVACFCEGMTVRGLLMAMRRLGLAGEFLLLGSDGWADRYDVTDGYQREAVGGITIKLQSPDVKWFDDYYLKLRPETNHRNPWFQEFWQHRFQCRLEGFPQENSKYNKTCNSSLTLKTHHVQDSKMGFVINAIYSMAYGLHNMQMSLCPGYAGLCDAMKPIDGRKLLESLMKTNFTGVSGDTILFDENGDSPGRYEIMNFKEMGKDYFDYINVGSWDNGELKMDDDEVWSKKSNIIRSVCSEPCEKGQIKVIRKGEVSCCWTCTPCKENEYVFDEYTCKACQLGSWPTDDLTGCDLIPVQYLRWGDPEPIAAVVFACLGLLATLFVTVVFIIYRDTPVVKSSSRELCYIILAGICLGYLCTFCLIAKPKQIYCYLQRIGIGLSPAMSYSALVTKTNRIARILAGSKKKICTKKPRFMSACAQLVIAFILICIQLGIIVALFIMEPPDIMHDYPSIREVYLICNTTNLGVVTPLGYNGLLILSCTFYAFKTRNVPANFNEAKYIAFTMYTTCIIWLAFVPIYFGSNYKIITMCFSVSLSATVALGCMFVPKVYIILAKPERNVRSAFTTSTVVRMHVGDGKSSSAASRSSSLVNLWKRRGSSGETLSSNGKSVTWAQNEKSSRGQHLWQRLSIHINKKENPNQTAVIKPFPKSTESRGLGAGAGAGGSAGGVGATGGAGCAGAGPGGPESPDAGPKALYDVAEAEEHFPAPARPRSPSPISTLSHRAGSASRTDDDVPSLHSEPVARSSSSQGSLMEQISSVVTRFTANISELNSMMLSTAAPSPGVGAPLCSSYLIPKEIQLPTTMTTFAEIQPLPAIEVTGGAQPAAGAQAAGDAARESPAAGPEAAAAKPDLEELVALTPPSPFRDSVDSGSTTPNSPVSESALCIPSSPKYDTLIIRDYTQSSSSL

melting point [°C] | Emax (human mGluR5a receptor; [1]) [%] | EC50 (human mGluR5a receptor) [nM] | pEC50 (human mGluR5a receptor) | Emax (human mGluR5a receptor; maximum average response at a single concentration) [%] | Structure (SMILES) | reversal of amphetamine-induced hyperlocomotion (male Sprague-Dawley rats)
– | – | – | – | – | O=C(c1ccc(F)cc1)N1CCn2nc(COc3ccccc3)cc2C1 [FPPPM, (4-fluorophenyl)(2-(phenoxymethyl)-6,7-dihydropyrazolo[1,5-a]pyrazin-5(4H)-yl)methanone] | reversal of amphetamine-induced hyperlocomotion
53.1 | 67 | 2630 | – | – | O=C(c1ccc(F)cc1)N1CCn2nc(COc3ccccc3)cc2C1C(F)(F)F (racemic) [Compound 53] | –
136 | 23 | 2950 | 5.53 | – | O=C(c1ccc(F)cc1)N1CCn2nc(COc3ccccc3)c(Cl)c2C1 [Compound 55] | –
60 | 47 | > 10000 | <5.00 | – | O=C(c1ncccc1Cl)N1CCn2nc(COc3ccccc3)cc2C1 [Compound 29] | –
57.1 | 71 | 1050 | 5.98 | – | N#Cc1cc(C(=O)N2CCn3nc(COc4cccc(F)c4)cc3C2)ccc1F [Compound 33] | –
> 300 | 23 | 1780 | 5.75 | – | N#Cc1ccc(C(=O)N2CCn3nc(COc4cccc(F)c4)cc3C2)cc1F [Compound 32] | –
133.3 | 81 | 1660 | 5.78 | – | N#Cc1cc(C(=O)N2CCn3nc(COc4ccccc4)cc3C2)ccc1F [Compound 28] | –
106 | 67 | 161 | 6.79 | – | O=C(c1ccc(F)cc1)N1CCn2nc(COc3ccccc3)cc2C1 [Compound 1] | –
60.3 | 23 | > 30200 | <4.52 | – | N#Cc1ccc(C(=O)N2CCn3nc(COc4ccccc4)cc3C2)cc1F [Compound 27] | –
109.8 | 52 | 83 | 7.08 | – | N#Cc1cc(F)cc(C(=O)N2CCn3nc(COc4ccccc4)cc3C2)c1 [Compound 26] | –
101.5 | 59 | 331 | 6.48 | – | N#Cc1cccc(C(=O)N2CCn3nc(COc4cccc(F)c4)cc3C2)c1 [Compound 30] | –
88.2 | 30 | > 30200 | <4.52 | – | Cc1ccc(C(=O)N2CCn3nc(COc4cccc(F)c4)cc3C2)cn1 [Compound 15] | –
114 | 65 | 2950 | 5.53 | – | O=C(c1ncccc1F)N1CCn2nc(COc3cccc(F)c3)cc2C1 [Compound 20] | –
112.7 | 75 | 587 | 6.23 | – | O=C(c1ccc(F)c(F)c1)N1CCn2nc(COc3cccc(F)c3)cc2C1 [Compound 13] | –
> 300 | – | > 30200 | <4.52 | 35 | CC1Cn2nc(COc3ccccc3)cc2CN1C(=O)c1ccc(F)cc1 (stereo not shown) [Compound 46] | –
105.5 | 36 | > 30200 | <4.52 | – | Cc1cnc(C(=O)N2CCn3nc(COc4cccc(F)c4)cc3C2)cn1 [Compound 35] | –
159.2 | 72 | 257 | 6.59 | – | O=C(c1ccccc1)N1CCn2nc(COc3cccc(F)c3)cc2C1 [Compound 9] | –

From patent publication US9255103B2, “Substituted pyrazolo[1,5-a]pyrazines as mGluR5 receptor modulators” (Vanderbilt University, priority 2010, dated 2016)
